The source of these data is US9249356B2, “Liquid crystal dye mixture” (PEER+ B.V., priority 2011, dated 2016).

Structures are written as SMILES.

What all share (type): physicochemical
A short description of data set [1]: Maximum solubility in nematic liquid crystal mixture MLC6653. The conditions noted are these: nematic LC (MLC6653 named). The source says: As is apparent from the table above, these dyes suffer from a low order parameter. The Lumogen IR 765 and Lumogen IR788 have poor fluorescence and have no significant solubility (<<0.1 wt %) in commercial liquid crystal mixture MLC6653 from (Merck Darmstadt), a nematic liquid crystal mixture with positive dielectric anisotropy and a positive delta n.

Data set [2] can be described thus: Peak absorption and order parameter of Lumogen dyes in nematic liquid crystal. The source says: Light fast rylene type dyes are commercially sold by BASF under the name Lumogen.
A short description of data set [3]: Solubility in fluorinated liquid crystal.
A short description of data set [4]: Dichroic ratio in a liquid crystal host. An excerpt:
The purpose of these LC-dye mixtures is to be able to control the absorption or fluorescence emission (or both) of light by the dye. A measure of how well the absorption can be controlled is the dichroic ratio of the dye in the LC mixture. The dichroic ratio is the ratio in absorption for light coming in parallel to the absorption axis of the molecule (A∥) versus light traveling perpendicular to the absorption axis (A—|—):
DR=A∥/A—|—. Another way of expressing the same property is the order parameter (S), which is defined as […]

A short description of data set [5]: Fluorescence / quantum yield. An excerpt: As a fourth requirement, the fluorescent dichroic dye should have high quantum efficiency. The quantum efficiency is the ratio of emitted photons to absorbed photons of the dye. The higher the quantum efficiency of the dye, the better the dye fluoresces. A good fluorescent dye has a quantum efficiency of at least 0.5, but preferably close to 1.

The next data set can be described thus: Light fastness. The conditions noted are these: in words. The source says:
As a third requirement, a high light stability of the dye is desirable. A high light stability allows a long lifetime of the devices in high power conditions such as sunlight, lasers or interior lighting.

For `CC(C)c1cccc(C(C)C)c1N1C(=O)c2cc(Oc3ccccc3)c3c4c(Oc5ccccc5)cc5c6c(cc(Oc7ccccc7)c(c7c(Oc8ccccc8)cc(c2c37)C1=O)c64)C(=O)N(c1c(C(C)C)cccc1C(C)C)C5=O` [Lumogen F red 305], the maximum solubility in data set [1] was found to be 0.2 wt %. For the same compound, the Peak absorption in data set [2] (in nematic LC) is recorded as 577.5 nm. Besides, in data set [2] (nematic LC), the “order parameter in nematic LC” value was −0.12.

As for `CCCCCCC(CCCCCC)N1C(=O)c2ccc3c4ccc5c6c(ccc(c7ccc(c2c37)C1=O)c64)C(=O)N(c1ccc(-c2ccc3c4ccc6c7c(ccc(c8cccc2c83)c74)C(=O)N(c2c(C(C)C)cccc2C(C)C)C6=O)cc1)C5=O` [PBI-PMI, 2-(4-(2-(2,6-diisopropylphenyl)-1,3-dioxo-2,3-dihydro-1H-benzo[5,10]anthra[2,1,9-def]isoquinolin-8-yl)phenyl)-9-(tridecan-7-yl)anthra[2,1,9-def:6,5,10-d′e′f′]diisoquinoline-1,3,8,10(2H,9H)-tetraone], in data set [3], the solubility was above 0.2 wt %. For the same compound, the dichroic ratio in data set [4] came out at 14. In addition, the quantum yield in data set [5] (apolar solvents (cyclohexane)) stood at 0.77. For the same compound, the light fastness result in the data set “Light fastness” is given as “comparable to the lightfastness of the single perylene bisimide”.

`CCCCCCCCCCCCC1(CCCCCCCCCCCC)c2cc(N3C(=O)c4ccc5c6ccc7c8c(ccc(c9ccc(c4c59)C3=O)c86)C(=O)N(C(CCCCCC)CCCCCC)C7=O)ccc2-c2ccc(N3C(=O)c4ccc5c6ccc7c8c(ccc(c9ccc(c4c59)C3=O)c86)C(=O)N(C(CCCCCC)CCCCCC)C7=O)cc21` [PFP] returned a solubility in data set [3] of 0.2 wt %. In data set [4], the dichroic ratio worked out at 12. The fluorescence entry in data set [5] (in words) is reported as “good”. In the data set “Light fastness”, the light fastness result is “good”.
